biological target: T1, GR (Homo sapiens, UniProt P04150); experiment: In Vitro GR Luciferase Reporter Assay (antagonist mode, CHO-K1-GR-MMTV-Luc reporter cells); assay type: cell-based; settings: antagonist assay with 10 nM Dexamethasone, 18-24 hours
T1 construct: expressed in transfected cells; host or cells: CHO-K1
T1 sequence (P04150 1-777): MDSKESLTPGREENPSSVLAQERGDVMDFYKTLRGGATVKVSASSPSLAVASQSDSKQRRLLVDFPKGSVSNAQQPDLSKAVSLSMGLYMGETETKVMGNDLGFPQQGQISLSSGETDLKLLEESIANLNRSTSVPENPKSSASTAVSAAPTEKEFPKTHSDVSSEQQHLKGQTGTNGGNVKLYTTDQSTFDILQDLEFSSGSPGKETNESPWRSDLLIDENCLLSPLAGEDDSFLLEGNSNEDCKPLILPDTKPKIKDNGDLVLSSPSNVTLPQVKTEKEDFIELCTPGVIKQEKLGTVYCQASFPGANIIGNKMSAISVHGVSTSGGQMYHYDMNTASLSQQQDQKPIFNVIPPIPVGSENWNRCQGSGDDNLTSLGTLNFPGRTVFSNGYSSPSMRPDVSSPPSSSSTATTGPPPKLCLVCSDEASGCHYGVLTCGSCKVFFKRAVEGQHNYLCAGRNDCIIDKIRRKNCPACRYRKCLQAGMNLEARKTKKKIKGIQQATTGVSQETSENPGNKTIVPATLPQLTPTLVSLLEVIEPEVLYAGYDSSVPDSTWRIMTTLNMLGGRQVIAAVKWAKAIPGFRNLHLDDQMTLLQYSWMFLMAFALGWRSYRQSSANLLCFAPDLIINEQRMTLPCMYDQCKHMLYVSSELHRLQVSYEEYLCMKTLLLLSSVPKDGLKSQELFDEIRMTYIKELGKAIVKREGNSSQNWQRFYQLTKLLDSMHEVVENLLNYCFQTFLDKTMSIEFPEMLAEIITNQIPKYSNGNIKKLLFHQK
Outline: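 CHO-K1-GR-MMTV-Luc cells in phenol red-free DMEM with 10% CSS, stimulated with 10 nM dexamethasone (final) and treated with 8-point 1:5 compound dilutions for about 18-24 h at 37° C. Luciferase measured by OneGlo luminescence; IC50 derived for inhibition of GR activity.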

IC50, ≤ 100 nM:
CN([C@H]1CCC2=Cc3c(cnn3-c3ccc(F)cc3)C[C@]2(C(=O)c2ccc(C(F)(F)F)cn2)C1)S(=O)(=O)c1ccc(Cl)cc1 [Example 105, 4-chloro-N-((4aS,6S)-1-(4-fluorophenyl)-4a-(5-(trifluoromethyl)picolinoyl)-4,4a,5,6,7,8-hexahydro-1H-benzo[f]indazol-6-yl)-N-methylbenzenesulfonamide]
CN([C@H]1CCC2=Cc3c(cnn3-c3ccc(F)cc3)C[C@]2(C(=O)c2nccs2)C1)S(=O)(=O)c1ccc(F)cc1 [Example 106, 4-fluoro-N-((4aS,6S)-1-(4-fluorophenyl)-4a-(thiazole-2-carbonyl)-4,4a,5,6,7,8-hexahydro-1H-benzo[f]indazol-6-yl)-N-methylbenzenesulfonamide]
CN([C@H]1CCC2=Cc3c(cnn3-c3ccc(F)cc3)C[C@]2(C(=O)c2cc(C(F)(F)F)ccn2)C1)S(=O)(=O)c1cnn(CC2CC2)c1 [Example 108, 1-(cyclopropylmethyl)-N-((4aS,6S)-1-(4-fluorophenyl)-4a-(4-(trifluoromethyl)picolinoyl)-4,4a,5,6,7,8-hexahydro-1H-benzo[f]indazol-6-yl)-N-methyl-1H-pyrazole-4-sulfonamide]
CCN([C@H]1CCC2=Cc3c(cnn3-c3ccc(F)cc3)C[C@]2(C(=O)c2ccc(C3CC3)cn2)C1)S(=O)(=O)c1ccc(F)cc1 [Example 109, N-((4aS,6S)-4a-(5-cyclopropylpicolinoyl)-1-(4-fluorophenyl)-4,4a,5,6,7,8-hexahydro-1H-benzo[f]indazol-6-yl)-N-ethyl-4-fluorobenzenesulfonamide]
CCN([C@H]1CCC2=Cc3c(cnn3-c3ccc(F)cc3)C[C@]2(C(=O)c2ccc(C3CC3)cn2)C1)S(=O)(=O)c1ccc(Cl)cc1 [Example 110, 4-chloro-N-((4aS,6S)-4a-(5-cyclopropylpicolinoyl)-1-(4-fluorophenyl)-4,4a,5,6,7,8-hexahydro-1H-benzo[f]indazol-6-yl)-N-ethylbenzenesulfonamide]

same assay, conditions: antagonist mode, 10 nM Dexamethasone

IC50, ≤ 100 nM:
O=C(c1cc(C(F)(F)F)ccn1)[C@]12Cc3cnn(-c4ccc(F)cc4)c3C=C1CC[C@H](S(=O)(=O)c1cnn(CC(F)(F)F)n1)C2 [Example 115, ((4aS,6S)-1-(4-Fluorophenyl)-6-((2-(2,2,2-trifluoroethyl)-2H-1,2,3-triazol-4-yl)sulfonyl)-1,4,5,6,7,8-hexahydro-4aH-benzo[f]indazol-4a-yl)(4-(trifluoromethyl)pyridin-2-yl)methanone]
CCn1ncc(S(=O)(=O)[C@H]2CCC3=Cc4c(cnn4-c4ccc(F)cc4)C[C@]3(C(=O)c3ccc(C4CC4)cn3)C2)n1 [Example 123, (5-cyclopropylpyridin-2-yl)((4aS,6S)-6-((2-ethyl-2H-1,2,3-triazol-4-yl)sulfonyl)-1-(4-fluorophenyl)-1,4,5,6,7,8-hexahydro-4aH-benzo[f]indazol-4a-yl)methanone]
CN([C@H]1CCC2=Cc3c(cnn3-c3ccc(F)cc3)C[C@]2(C(=O)c2ccc(C3CC3)cn2)C1)S(=O)(=O)c1ccc(F)cc1 [Example 124, N-((4aS,6S)-4a-(5-cyclopropylpicolinoyl)-1-(4-fluorophenyl)-4,4a,5,6,7,8-hexahydro-1H-benzo[f]indazol-6-yl)-4-fluoro-N-methylbenzenesulfonamide]
O=C(c1ccccn1)[C@]12Cc3cnn(-c4ccc(F)cc4)c3C=C1CC[C@](F)(S(=O)(=O)c1ccccc1)C2 [Example 125, ((4aS,6S)-6-fluoro-1-(4-fluorophenyl)-6-(phenylsulfonyl)-1,4,5,6,7,8-hexahydro-4aH-benzo[f]indazol-4a-yl)(pyridin-2-yl)methanone]
CCn1ncc(S(=O)(=O)N(C)[C@H]2CCC3=Cc4c(cnn4-c4ccc(F)cc4)C[C@]3(C(=O)c3cc(C(F)(F)F)ccn3)C2)n1 [Example 126, 2-ethyl-N-((4aS,6S)-1-(4-fluorophenyl)-4a-(4-(trifluoromethyl)picolinoyl)-4,4a,5,6,7,8-hexahydro-1H-benzo[f]indazol-6-yl)-N-methyl-2H-1,2,3-triazole-4-sulfonamide]
CCN([C@H]1CCC2=Cc3c(cnn3-c3ccc(F)cc3)C[C@]2(C(=O)c2nccs2)C1)S(=O)(=O)c1ccc(Cl)cc1 [Example 127, 4-chloro-N-ethyl-N-((4aS,6S)-1-(4-fluorophenyl)-4a-(thiazole-2-carbonyl)-4,4a,5,6,7,8-hexahydro-1H-benzo[f]indazol-6-yl)benzenesulfonamide]
CCN([C@H]1CCC2=Cc3c(cnn3-c3ccc(F)cc3)C[C@]2(C(=O)c2nccs2)C1)S(=O)(=O)c1ccc(F)cc1 [Example 128, N-ethyl-4-fluoro-N-((4aS,6S)-1-(4-fluorophenyl)-4a-(thiazole-2-carbonyl)-4,4a,5,6,7,8-hexahydro-1H-benzo[f]indazol-6-yl)benzenesulfonamide]
CCn1ncc(S(=O)(=O)N(C)[C@H]2CCC3=Cc4c(cnn4-c4ccc(F)cc4)C[C@]3(C(=O)c3ccc(C(F)(F)F)cn3)C2)n1 [Example 129, 2-ethyl-N-((4aS,6S)-1-(4-fluorophenyl)-4a-(5-(trifluoromethyl)picolinoyl)-4,4a,5,6,7,8-hexahydro-1H-benzo[f]indazol-6-yl)-N-methyl-2H-1,2,3-triazole-4-sulfonamide]
CCn1ncc(S(=O)(=O)N(C)[C@H]2CCC3=Cc4c(cnn4-c4ccc(F)cc4)C[C@]3(C(=O)c3ccc(C4CC4)cn3)C2)n1 [Example 130, N-((4aS,6S)-4a-(5-cyclopropylpicolinoyl)-1-(4-fluorophenyl)-4,4a,5,6,7,8-hexahydro-1H-benzo[f]indazol-6-yl)-2-ethyl-N-methyl-2H-1,2,3-triazole-4-sulfonamide]
CCN([C@H]1CCC2=Cc3c(cnn3-c3ccc(F)cc3)C[C@]2(C(=O)c2cc(C(F)(F)F)ccn2)C1)S(=O)(=O)c1cnn(CC)c1 [Example 132, N,1-diethyl-N-((4aS,6S)-1-(4-fluorophenyl)-4a-(4-(trifluoromethyl)picolinoyl)-4,4a,5,6,7,8-hexahydro-1H-benzo[f]indazol-6-yl)-1H-pyrazole-4-sulfonamide]
CN([C@H]1CCC2=Cc3c(cnn3-c3ccc(F)cc3)C[C@]2(C(=O)c2nccs2)C1)S(=O)(=O)c1cnn(C)c1 [Example 133, N-((4aS,6S)-1-(4-fluorophenyl)-4a-(thiazole-2-carbonyl)-4,4a,5,6,7,8-hexahydro-1H-benzo[f]indazol-6-yl)-N,1-dimethyl-1H-pyrazole-4-sulfonamide]
CN([C@H]1CCC2=Cc3c(cnn3-c3ccc(F)cc3)C[C@]2(C(=O)c2ccc(C3CC3)cn2)C1)S(=O)(=O)c1ccn(C)n1 [Example 135, N-((4aS,6S)-4a-(5-cyclopropylpicolinoyl)-1-(4-fluorophenyl)-4,4a,5,6,7,8-hexahydro-1H-benzo[f]indazol-6-yl)-N,1-dimethyl-1H-pyrazole-3-sulfonamide]
CCN([C@H]1CCC2=Cc3c(cnn3-c3ccc(F)cc3)C[C@]2(C(=O)c2ccc(C3CC3)cn2)C1)S(=O)(=O)c1cnn(C)c1 [Example 136, N-((4aS,6S)-4a-(5-cyclopropylpicolinoyl)-1-(4-fluorophenyl)-4,4a,5,6,7,8-hexahydro-1H-benzo[f]indazol-6-yl)-N-ethyl-1-methyl-1H-pyrazole-4-sulfonamide]
CN(c1ccc(F)cc1)S(=O)(=O)[C@H]1CCC2=Cc3c(cnn3-c3ccc(F)cc3)C[C@]2(C(=O)c2ccccn2)C1 [Example 137, (4aS,6S)-N,1-bis(4-fluorophenyl)-N-methyl-4a-picolinoyl-4,4a,5,6,7,8-hexahydro-1H-benzo[f]indazole-6-sulfonamide]
CN([C@H]1CCC2=Cc3c(cnn3-c3ccc(F)cc3)C[C@]2(C(=O)c2nccs2)C1)S(=O)(=O)c1ccn(C)n1 [Example 139, N-((4aS,6S)-1-(4-fluorophenyl)-4a-(thiazole-2-carbonyl)-4,4a,5,6,7,8-hexahydro-1H-benzo[f]indazol-6-yl)-N,1-dimethyl-1H-pyrazole-3-sulfonamide]
Cn1cc(S(=O)(=O)N(C2CC2)[C@H]2CCC3=Cc4c(cnn4-c4ccc(F)cc4)C[C@]3(C(=O)c3ccc(C4CC4)cn3)C2)cn1 [Example 141, N-cyclopropyl-N-((4aS,6S)-4a-(5-cyclopropylpicolinoyl)-1-(4-fluorophenyl)-4,4a,5,6,7,8-hexahydro-1H-benzo[f]indazol-6-yl)-1-methyl-1H-pyrazole-4-sulfonamide]

Reference: patent US20210122730A1, “GLUCOCORTICOID RECEPTOR MODULATORS” (ORIC Pharmaceuticals, Inc., priority 2017, published 2021)
